Assay results published in patent US8183236B2, “Compounds with HIV-1 integrase inhibitory activity and use thereof as anti-HIV/AIDS therapeutics” (University of Southern California, priority 2007, dated 2012).

target: T1, HIV-1 integrase (wild-type IN) (Human immunodeficiency virus type 1 group M subtype B, UniProt P12497); experiment: HIV-1 integrase strand transfer assay (32P-labeled 21-mer, gel); format: biochemical; conditions: wild-type IN 200 nM, 7.5 mM MnCl2; read-out: Inhibition of IN Catalytic Activities IC50 (μM) Strand Transfer
Procedure, shortened: (§1)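 Wild-type IN at 200 nM preincubated with inhibitor 30 min at 30 °C in MnCl2 (7.5 mM), pH 7.2 MOPS buffer with 10% DMSO, then 20 nM 5′-32P-labeled 21-mer duplex added for 1 h. 19-mer and strand-transfer products resolved on denaturing 20% gels by phosphorimaging; IC50 from log concentration versus % inhibition.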

Going from `COCCN1C(=O)/C(=C\c2ccc(OCc3ccc(C(=O)O)cc3)c(OC)c2)SC1=S` [OT35] to `COc1ccc(/C=C2/SC(=S)N(CC(=O)O)C2=O)cc1OCc1ccccc1F` [OT37], the IC50 rises from 38 ± 16 µM to 79 ± 8 µM (2.1-fold). The first is the more potent here.

`O=C(CSc1nc2scc(-c3ccco3)c2c(=O)n1-c1ccccc1)NCc1ccco1` [OT51] and `O=c1cc(-c2ccccc2)c2ccc(O)c(O)c2o1` [SR44] are within error of each other in IC50: 14 ± 4 µM for the first, 16 µM for the second.

Going from `CCn1cc(C(=O)O)c(=O)c2cc(F)c(NNC(=O)C3CCCCC3)cc21` [ROM3A1] to `CCn1cc(C(=O)NN)c(=O)c2cc(F)c(N3CCCCCC3)cc21` [ROM3A2], the IC50 falls from > 100 µM to 98 µM. The second is the more potent here.

`CCn1cc(C(=O)O)c(=O)c2cc(F)c(N3CCN(C(=O)c4cccc(C)c4)CC3)cc21` [ROM3A3] and `CCn1cc(C(=O)O)c(=O)c2cc(F)c(N3CCN(C(=S)S)CC3)cc21` [ROM3A6] cannot be ordered by IC50: > 100 µM for the first, > 100 µM for the second.

`CCn1cc(C(=O)O)c(=O)c2cnc(N3CCN(C(=S)NC(=O)c4ccc(F)c(F)c4)CC3)nc21` [ROM3A4] and `O=C(NC(=S)N1CCN(c2cc3c(cc2F)c(=O)c(C(=O)O)cn3C2CC2)CC1)c1ccc(Cl)cc1` [ROM3A9] are within 1.5-fold of each other in IC50: 59 µM for the first, 53 µM for the second.

Compared with `NC(=S)N1CCN(c2c(F)c(N)c3c(=O)c(C(=O)O)cn(C4CC4)c3c2F)CC1` [ROM3A5], `CCn1cc(C(=O)O)c(=O)c2c(N)c(F)c(N3CCNCC3)c(F)c21` [ROM3A7] is lower in IC50: > 100 µM for the first, 95 µM for the second.

First: CCn1cc(C(=O)O)c(=O)c2cc(F)c(N3CCN(C(=S)NC(=O)C45CC6CC(CC(C6)C4)C5)CC3)cc21 [ROM3A8]
Second: CCn1cc(C(=O)O)c(=O)c2cc(F)c(N3CCN(S(=O)(=O)c4ccc(NC(C)=O)cc4)CC3)cc21 [SR9]
The IC50 of the first is lower: 74 µM for the first, > 100 µM for the second. The first is the more potent here.

`O=C(NC1CC1)c1c[nH]c2ccc(S(=O)(=O)Nc3cccc(C(F)(F)F)c3)cc2c1=O` [ROM3A10] and `O=C(NCc1cccs1)c1c[nH]c2ccc(S(=O)(=O)Nc3ccc4c(c3)OCCO4)cc2c1=O` [ROM3A11] are within 1.5-fold of each other in IC50: 92 µM for the first, 90 µM for the second.

Compared with `O=C(O)c1c[nH]c2c(F)c(F)c(F)c(NCc3ccccc3)c2c1=O` [ROM3], `CCn1c(=O)c(C(=O)Nc2cc(Cl)ccc2OC)c(O)c2ccccc21` [XR5] is 1.6-fold higher in IC50: 12 µM for the first, 19 µM for the second. The first is the more potent here.

`Oc1cccc2ccc(/C=N/N=C/c3ccc4cccc(O)c4n3)nc12` [RT3] and `Oc1cccc2ccc(/C=C/c3ccc(-c4cccc(Cl)c4)o3)nc12` [RT29] are within 1.5-fold of each other in IC50: 69 µM for the first, 70 µM for the second.

Compared with `O=C(O)CCN1C(=O)/C(=C\c2ccc(-c3cccc(Cl)c3)o2)SC1=S` [RT23], `CC1=NN2C(=N)/C(=C/c3ccc(-c4ccccc4Cl)o3)C(=O)N=C2S1` [RT42] is higher in IC50: 21 µM for the first, > 100 µM for the second.

`Cc1ccc2ccc(C(Nc3ccccn3)c3ccc(F)cc3)c(O)c2n1` (stereo not shown) [RT30] and `Cc1cc([N+](=O)[O-])ccc1-c1ccc(/C=C/c2ccc3cccc(O)c3n2)o1` [RT31] cannot be ordered by IC50: > 100 µM for the first, > 100 µM for the second.

Compared with `CCOc1cc(/C=C2/C(=N)N3N=C(C(C)(F)F)SC3=NC2=O)ccc1OCc1ccc(F)cc1` [RT35], `CCCCCn1c(=O)c(C(=O)Nc2cc([N+](=O)[O-])ccc2O)c(O)c2ccccc21` [XR6] is 2.1-fold lower in IC50: 19 µM for the first, 9 µM for the second.

target: T1, HIV-1 integrase (wild-type IN); experiment: HIV-1 integrase 3′-processing assay (32P-labeled 21-mer, gel); format: biochemical; conditions: wild-type IN 200 nM, 7.5 mM MnCl2; read-out: Inhibition of IN Catalytic Activities IC50 (μM) 3′-processing
Procedure, shortened: as §1

Compared with `COCCN1C(=O)/C(=C\c2ccc(OCc3ccc(C(=O)O)cc3)c(OC)c2)SC1=S` [OT35], `COc1ccc(/C=C2/SC(=S)N(CC(=O)O)C2=O)cc1OCc1ccccc1F` [OT37] is higher in IC50: 41 ± 11 µM for the first, > 100 µM for the second.

`O=C(CSc1nc2scc(-c3ccco3)c2c(=O)n1-c1ccccc1)NCc1ccco1` [OT51] and `O=c1cc(-c2ccccc2)c2ccc(O)c(O)c2o1` [SR44] are within error of each other in IC50: 36 ± 29 µM for the first, 32 µM for the second.

Compared with `CCn1cc(C(=O)O)c(=O)c2cc(F)c(NNC(=O)C3CCCCC3)cc21` [ROM3A1], `CCn1cc(C(=O)NN)c(=O)c2cc(F)c(N3CCCCCC3)cc21` [ROM3A2] is lower in IC50: > 100 µM for the first, 94 µM for the second.

`CCn1cc(C(=O)O)c(=O)c2cc(F)c(N3CCN(C(=O)c4cccc(C)c4)CC3)cc21` [ROM3A3] and `CCn1cc(C(=O)O)c(=O)c2cc(F)c(N3CCN(C(=S)S)CC3)cc21` [ROM3A6] cannot be ordered by IC50: > 100 µM for the first, > 100 µM for the second.

`CCn1cc(C(=O)O)c(=O)c2cnc(N3CCN(C(=S)NC(=O)c4ccc(F)c(F)c4)CC3)nc21` [ROM3A4] and `O=C(NC(=S)N1CCN(c2cc3c(cc2F)c(=O)c(C(=O)O)cn3C2CC2)CC1)c1ccc(Cl)cc1` [ROM3A9] are within 1.5-fold of each other in IC50: 64 µM for the first, 80 µM for the second.

`NC(=S)N1CCN(c2c(F)c(N)c3c(=O)c(C(=O)O)cn(C4CC4)c3c2F)CC1` [ROM3A5] and `CCn1cc(C(=O)O)c(=O)c2c(N)c(F)c(N3CCNCC3)c(F)c21` [ROM3A7] cannot be ordered by IC50: > 100 µM for the first, > 100 µM for the second.

First: CCn1cc(C(=O)O)c(=O)c2cc(F)c(N3CCN(C(=S)NC(=O)C45CC6CC(CC(C6)C4)C5)CC3)cc21 [ROM3A8]
Second: CCn1cc(C(=O)O)c(=O)c2cc(F)c(N3CCN(S(=O)(=O)c4ccc(NC(C)=O)cc4)CC3)cc21 [SR9]
The IC50 of the first is lower: 78 µM for the first, > 100 µM for the second.

`O=C(NC1CC1)c1c[nH]c2ccc(S(=O)(=O)Nc3cccc(C(F)(F)F)c3)cc2c1=O` [ROM3A10] and `O=C(NCc1cccs1)c1c[nH]c2ccc(S(=O)(=O)Nc3ccc4c(c3)OCCO4)cc2c1=O` [ROM3A11] are within 1.5-fold of each other in IC50: 93 µM for the first, 91 µM for the second.

`O=C(O)c1c[nH]c2c(F)c(F)c(F)c(NCc3ccccc3)c2c1=O` [ROM3] and `CCn1c(=O)c(C(=O)Nc2cc(Cl)ccc2OC)c(O)c2ccccc21` [XR5] cannot be ordered by IC50: > 12 µM for the first, 74 µM for the second.

Compared with `Oc1cccc2ccc(/C=N/N=C/c3ccc4cccc(O)c4n3)nc12` [RT3], `Oc1cccc2ccc(/C=C/c3ccc(-c4cccc(Cl)c4)o3)nc12` [RT29] is 1.5-fold lower in IC50: 45 µM for the first, 30 µM for the second.

`O=C(O)CCN1C(=O)/C(=C\c2ccc(-c3cccc(Cl)c3)o2)SC1=S` [RT23] and `CC1=NN2C(=N)/C(=C/c3ccc(-c4ccccc4Cl)o3)C(=O)N=C2S1` [RT42] cannot be ordered by IC50: > 100 µM for the first, > 100 µM for the second.

Compared with `Cc1ccc2ccc(C(Nc3ccccn3)c3ccc(F)cc3)c(O)c2n1` (stereo not shown) [RT30], `Cc1cc([N+](=O)[O-])ccc1-c1ccc(/C=C/c2ccc3cccc(O)c3n2)o1` [RT31] is lower in IC50: > 100 µM for the first, 57 µM for the second. The second is the more potent here.

First: CCOc1cc(/C=C2/C(=N)N3N=C(C(C)(F)F)SC3=NC2=O)ccc1OCc1ccc(F)cc1 [RT35]
Second: CCCCCn1c(=O)c(C(=O)Nc2cc([N+](=O)[O-])ccc2O)c(O)c2ccccc21 [XR6]
The IC50 of the first is 10-fold higher: 90 µM for the first, 9 µM for the second. The second is the more potent here.
